This passage reports IC50 results from patent EP4782434A1, “N-SULFONYL CARBOXAMIDE COMPOUND, AND PREPARATION METHOD THEREFOR AND USE THEREOF” (Nutshell Therapeutics (Shanghai) Co., Ltd., priority 2023, dated 2025).

Test [1] addresses T1, Polθ ATPase (Homo sapiens, UniProt O75417).
T1 construct: purified truncated POLQ-N protein (aa 1-894, N-terminal 6-His tag); 6-His (N)
Briefly: Polθ ATPase activity assay (ADP-Glo Kinase Assay kit). It is filed as biochemical. Conditions: truncated POLQ-N protein (aa 1-894) 1 nM, 50 nM ssDNA, 50 µM ATP. On the procedure:
The inhibitory efficiency of the compounds of formula (I) against Polθ ATPase activity was determined using the ADP-Glo Kinase Assay kit (Promega, V9101). […] The starting (final) concentration was 100 nM, followed by a 3-fold serial dilution for a total of 10 concentration points in duplicate (n=2). 5 μL of purified […], N-terminal 6-His tag) was added to each well. After centrifugation at 1000 rpm for 1 minute, the plate was incubated at 25°C for 10 minutes. 5 μL of substrate reaction solution (containing ATP & ssDNA) was added to each well, and the reaction was carried out at 25°C for 60 minutes. 5 μL of ADP-Glo Reagent was added to each well. After centrifugation at 1000 rpm for 1 minute, the plate was incubated at 25°C for 40 minutes. 10 μL of detection solution was added to each well. After centrifugation at 1000 rpm for 1 minute, the plate was incubated at 25°C for 40 minutes. Luminescence signals were recorded using a microplate reader (BMG, PHERAstar FSX). The final reaction system contained 1 nM of POLQ-N enzyme; 50 nM of ssDNA ([NT]); 50 μM of ATP; and 1% DMSO. The inhibition percentage (%) of the compound at each concentration was calculated using the RFU values normalized against the control wells within each assay plate. Table 1: Inhibitory activity of compounds against Polθ ATPase
A general note: ADP-Glo first removes unused ATP, then detects ADP through luciferase.

For test [2], the system named is Theta-mediated end joining (TMEJ) process in HEK293T cells. The test can be described thus: TMEJ reporter assay (NanoGlo luciferase). It is filed as cell-based. The following applies: Homo sapiens, HEK-293T, HEK293T cells electroporated with TMEJ substrate, 24 hours. On the procedure:
The inhibitory effect of the compounds on the Theta-mediated end joining (TMEJ) process was evaluated.
(1) HEK293T cells were cultured in DMEM supplemented with 10% heat-inactivated fetal bovine serum (FBS) and 1% penicillin-streptomycin (PS). (2) Prior to startup, the Neon transfection system was disinfected, and E2 and R buffers were equilibrated to room temperature. (3) Culture medium without antibiotics was pre-warmed. (4) Cells in the flask reaching 80-90% confluency were trypsinized, neutralized with culture medium, centrifuged, and counted. (5) For transfection using a 100 µL electroporation tip, 2 × 10^6 cells were taken, washed once with DPBS (without Mg^2+ and Ca^2+), centrifuged at 1000 rpm for 5 min, and the supernatant was discarded. The number of cells and volume may be increased as required. (6) The Neon system was set up; a Neon tube was inserted into the Neon pipette and E2 buffer was added. (7) 10 µg of TMEJ substrate was added to 100 µL of R solution; the volume may be increased as required. (8) Cells were resuspended in DNA buffer, and electroporation was initiated according to the following parameters:
(9) The cells were loaded into antibiotic-free culture medium and mixed gently. (10) Steps (8)-(9) were repeated as necessary, and cells were seeded into 384-well plates at a density of 40,000 cells/well in 40 µL of culture medium. (11) The plates were incubated in a humidified CO2 incubator at 37°C for 24 hours. (12) NanoGlo reagent was warmed to room temperature, and NanoGlo buffer was mixed with the substrate at a ratio of 50:1. (13) The cell culture plates were equilibrated at room temperature for 10 minutes. (14) 40 µL of NanoGlo substrate buffer was added to each well, followed by shaking at 300 rpm for 3 minutes protected from light. (15) Signals were read via a BMG PHERAstar FSX.

In test [3] the test system is DLD-1 BRCA2-/- cells. Briefly: DLD-1 BRCA2-/- cell proliferation assay (CellTiter-Glo, 10 days incubation). It is filed as cell-based. The following applies: Homo sapiens, 240 h, DLD-1 BRCA2-/- cell line, total incubation period of 10 days, read-out: DLD1 BRCA2^-/- IC50. The source says:
The anti-proliferative effect of the compounds on the human colorectal adenocarcinoma cell line DLD-1 BRCA2^-/- method.
• DLD-1 (purchased from ATCC, Cat. No.: CCL-221, Batch No.: 70033255); • RPMI1640 (purchased from Invitrogen, Cat. No.: 11875-085); • 0.25% Trypsin-EDTA (purchased from Invitrogen, Cat. No.: 25200-072); • Penicillin-Streptomycin solution (purchased from Hyclone, Cat. No.: SV30010); • FBS (purchased from BI, Cat. No.: 04-002-1A); • DMSO (purchased from Sigma, Cat. No.: D4540-1L); • 96-well plate (purchased from Corning, Cat. No.: CLS3903); • CellTiter-Glo reagent (purchased from Promega, Cat. No.: G7558).
The anti-proliferative effect of the compounds on a human colorectal adenocarcinoma cell line was evaluated using an ATP quantification method, wherein the measured activity correlates well with the number of viable cells. The genetically edited cell line DLD-1 BRCA2^-/- was cultured in RPMI 1640 medium (Invitrogen, 11875-085) supplemented with 10% (v/v) fetal bovine serum (BI, 04-002-1A). The cell line was cultured according to the standard instructions of the American Type Culture Collection (ATCC) and identified via short tandem repeat (STR) genotyping.
In the proliferation assay, cells were harvested and resuspended in cell culture medium. Cell density was determined using a cell counter. An appropriate volume of cell suspension was aspirated from the centrifuge tube to prepare a plating working solution (150 cells/100 µL for the DLD-1 BRCA2^-/- cell line). 100 µL of the cell suspension was seeded into each well of a 96-well plate (Corning, 3603) and incubated overnight in an incubator. The diluted test compound solutions were added to the wells. On the fourth and seventh days of compound incubation, the medium was replaced with fresh culture medium, and the compounds were re-administered, for a total incubation period of 10 days. Following incubation, the cell culture plates were removed and equilibrated to room temperature. 100 µL of CellTiter-Glo (Promega, G7558) was added to each well, and the plate was incubated at room temperature for 30 minutes. Data were read using a microplate reader (PerkinElmer, Enspire) in 96-well luminescence mode. Data analysis, curve fitting, and reporting were performed using the dose-response one-site 205 model of IDBS XL fit. Table 2: Proliferation inhibitory activity of compounds against DLD-1 BRCA2-/- cells
(ATP-based viability assays read luminescence as a measure of living cells.)

SMILES strings stand for the structures. A value given as a limit tells only on which side of the number the result lay.

T1 sequence (O75417 1-894): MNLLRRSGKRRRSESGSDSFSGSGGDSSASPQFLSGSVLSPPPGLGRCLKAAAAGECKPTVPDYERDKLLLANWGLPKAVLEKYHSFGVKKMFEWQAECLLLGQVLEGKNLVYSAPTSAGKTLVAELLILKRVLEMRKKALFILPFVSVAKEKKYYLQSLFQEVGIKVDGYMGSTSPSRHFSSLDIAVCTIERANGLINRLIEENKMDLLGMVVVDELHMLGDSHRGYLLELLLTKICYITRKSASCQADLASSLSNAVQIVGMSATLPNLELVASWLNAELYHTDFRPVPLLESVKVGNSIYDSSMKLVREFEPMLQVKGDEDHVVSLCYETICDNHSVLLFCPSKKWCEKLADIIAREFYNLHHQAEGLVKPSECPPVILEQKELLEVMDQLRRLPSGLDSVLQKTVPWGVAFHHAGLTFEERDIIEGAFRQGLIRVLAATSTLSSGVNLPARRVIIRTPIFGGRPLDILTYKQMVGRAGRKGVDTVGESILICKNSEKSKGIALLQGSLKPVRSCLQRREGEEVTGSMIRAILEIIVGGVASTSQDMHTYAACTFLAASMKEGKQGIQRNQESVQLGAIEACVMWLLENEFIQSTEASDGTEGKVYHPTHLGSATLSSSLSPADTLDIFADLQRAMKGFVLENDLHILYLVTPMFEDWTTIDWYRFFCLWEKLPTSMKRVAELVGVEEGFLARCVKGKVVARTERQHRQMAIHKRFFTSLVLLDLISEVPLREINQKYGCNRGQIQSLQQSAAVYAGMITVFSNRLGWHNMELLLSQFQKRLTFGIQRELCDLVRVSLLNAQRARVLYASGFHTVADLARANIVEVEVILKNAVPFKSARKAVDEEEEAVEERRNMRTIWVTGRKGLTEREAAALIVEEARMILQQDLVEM

As for `COc1cnc(Cl)cc1-c1cc(C)ncc1C(=O)Nc1nnc(OC[C@H]2COCCO2)s1` [Ref. 1, reference compound], the IC50 is 2 to 10 nM in test [1] (class symbols), 2.2 nM in test [1] (specific values), 5 nM in test [2] and 21 nM in test [3].
For `[2H]C([2H])([2H])O[C@@H](C)c1ccc(CS(=O)(=O)NC(=O)c2ccc(C([2H])([2H])[2H])cc2-c2cc(C(F)F)ncc2OC)cc1` [cpd-16, (S)-2-(2-(Difluoromethyl)-5-methoxypyridin-4-yl)-N-((4-(1-(methoxy-d3)ethyl)benzyl)sulfonyl)-4-(methyl-d3)benzamide] the same measures were at most 2 nM, 0.39 nM, 2 nM and 24 nM.
The matching figures for `[2H]C([2H])([2H])O[C@@H](C)c1ccc(CS(=O)(=O)NC(=O)c2ccc(C([2H])([2H])[2H])cc2-c2cc(Cl)ncc2OC)cc1` [cpd-17, (S)-2-(2-Chloro-5-methoxypyridin-4-yl)-N-((4-(1-(methoxy-d3)ethyl)benzyl)sulfonyl)-4-(methyl-d3)benzamide]: at most 2 nM, 1.4 nM, 1.8 nM and 16 nM.
